Format in all cases: functional
Assay [1] deals with Bacillus subtilis. The experiment in a line: Inhibitory activity was determined against bacillus subtilis (ATCC 82).
The test system of assay [2] is Bacillus subtilis. Nature of the assay: Ratio of minimum hemolysis concentration to that of minimum inhibitory concentration.
Assay [3] can be described thus: Tested for minimum concentration for hemolysis of fresh human erythrocytes.

The values that follow come from ChEMBL document CHEMBL1145752, “Dissociation of antibacterial and hemolytic activities of an amphipathic peptide antibiotic” (2003).

In brackets after ≈: the same amount, converted by molar mass.

As for `CC(C)C[C@@H]1NC(=O)[C@H](CCCN)NC(=O)[C@H](C(C)C)NC(=O)[C@H](Cc2ccc(O)cc2)NC(=O)[C@H](Cc2c[nH]c3ccccc23)NC(=O)[C@H](CC(N)=O)NC(=O)[C@@H](Cc2ccccc2)NC(=O)[C@H](Cc2ccccc2)NC(=O)[C@@H]2CCCN2C(=O)[C@@H](Cc2ccccc2)NC1=O`, it took 3.8 µg/mL (≈ 2.86 µM) to inhibit growth against Bacillus subtilis [1] (MIC). Also, the Ratio with Bacillus subtilis [2] is on record as 33. This compound had an MHC in assay [3] of 125 µg/mL.
